Reference: patent US11326138B2, “Cell culture device and methods of use thereof” (University of Kentucky Research Foundation, priority 2017, dated 2022)

How the values were obtained:
[1] = Solute diffusion from microfluidic channels into agarose hydrogel (time-lapse fluorescence); format: physicochemical; conditions: solution pumped through channels at 25 μL/min; 1.5 wt % agarose
Experimental: To illustrate a dynamic solute exchange between the hydrogel and the fluid in the microchannels, a liquid suspension of 1.5 wt % agarose in DI water was pipetted into the open reservoir of the microfluidic device. After solidification of the agarose, water containing 1.0 wt % rhodamine was introduced into the inlet using a syringe pump at a constant volumetric flowrate of 25 μL/min. Time-lapse images were taken every 30 seconds using a TI-E Nikon microscope and the fluorescent intensity was measured in the resulting images using NIS-Elements software in order to track the rhodamine diffusion from the channels into the agarose hydrogel.
Water containing 1.0 wt % rhodamine (0.48 kDa) was introduced into the microfluidic channels at a flowrate of 25 μL/min. […] Florescent intensity at two points—one directly beneath a PDMS wall and another centred beneath a microfluidic channel—was tracked over time.

[2] = Incubation of a PDMS surface in contact with rhodamine solution; format: physicochemical; conditions: 1.5 wt % solution of rhodamine, over 180 seconds
[3] = modelled value for rhodamine in 1.5% agarose hydrogel medium; cited from earlier work

Substance: rhodamine
- diffusion from microchannels into adjacent hydrogel [1]: diffused into the adjacent hydrogel
- diffusion into PDMS [2]: no detectable diffusion
- diffusion coefficient D [3]: 4×10^−6 cm^2/sec
